This is an account of results in US20230219906A1, “MACROCYCLIC-2-AMINO-3-FLUORO-BUT-3-ENAMIDES AS INHIBITORS OF MCL-1” (Janssen Pharmaceutica NV, priority 2020, published 2023).

Broadly, the pKi is the negative decadic logarithm of the Ki, by convention in mol/L. For orientation: AC50 means the concentration at which the activity in the assay is half-maximal.

For assay [1], the target named is Myeloid Cell Leukemia 1(Mcl-1) (Homo sapiens, UniProt Q07820). The experiment in a line: Terbium labeled Mcl-1 HTRF binding assay with Cy5-labeled BIM BH3 peptide. As to conditions: displacement of Cy5 Bim BH3 peptide; Ki=IC50/(1+[L]/Kd), [L]=8 nM, Kd=10 nM; 60 minutes at room temperature; read-out: Tb-MCL1 Ki. The gist of the method: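 TR-FRET displacement of Cy5-BIM BH3 peptide (8 nM; Kd 10 nM) from 25 pM Tb-labelled Mcl-1 in 10 mM Tris-HCl pH 7.5, 150 mM NaCl, 2 mM DTT, 0.0025% Tween-20, 0.1 mg/mL BSA, 1% DMSO. 60 min at room temperature; 665/620 nm ratio normalized to controls, IC50 from 11-point curve.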
For orientation: In TR-FRET formats the signal depends on donor and acceptor labels being close together.

In assay [2] the test system is MOLP-8 human multiple myeloma cell line. The experiment in a line: Caspase-Glo 3/7 apoptosis induction assay in MOLP-8 cells. The format is cell-based. As to conditions: Homo sapiens, MOLP-8, 2 h, caspase-3/7 activity, 2 hours at 37° C.; averaged over all runs on all batches; read-out: MOLP8 AC50. The gist of the method: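 MOLP-8 cells were treated for 2 h at 37° C with 10-dose, 1/3 serial dilutions ([…], 0.5% DMSO final, duplicates). Caspase-3/7 activity was read by Caspase-Glo luminescence 30 min after reagent addition. % effect was normalised between low (1% DMSO) and high (positive control) controls.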

pKi: −log10 of the molar value.

Chain of Myeloid Cell Leukemia 1(Mcl-1) (Q07820 whole entry): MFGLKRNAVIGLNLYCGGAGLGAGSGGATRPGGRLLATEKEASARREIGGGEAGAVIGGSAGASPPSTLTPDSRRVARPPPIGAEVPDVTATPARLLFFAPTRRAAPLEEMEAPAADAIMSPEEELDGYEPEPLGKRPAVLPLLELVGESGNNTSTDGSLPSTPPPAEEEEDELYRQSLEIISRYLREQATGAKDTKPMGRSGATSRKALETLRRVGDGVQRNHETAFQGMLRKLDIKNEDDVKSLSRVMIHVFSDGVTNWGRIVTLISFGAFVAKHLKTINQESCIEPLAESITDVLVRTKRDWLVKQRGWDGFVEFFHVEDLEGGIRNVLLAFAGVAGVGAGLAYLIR

As for `CO[C@@H]1CCN(C(=O)[C@H]2/C(F)=C/C[C@H](C)[C@@H](C)S(=O)(=O)NC(=O)c3ccc4c(c3)N(C[C@@H]3CCCN32)C[C@@]2(CCCc3cc(Cl)ccc32)CO4)C1` [Compound 52], the pKi in assay [1] is 10.44. Moreover, the AC50 in assay [2] stood at 90.5 nM.

With `C[C@@H]1[C@@H](C)C/C=C(\F)[C@H](C(=O)N(C)CCOc2cncnc2)N2CCC[C@H]2CN2C[C@@]3(CCCc4cc(Cl)ccc43)COc3ccc(cc32)C(=O)NS1(=O)=O` [Compound 41], the pKi in assay [1] was 10.47. Besides, in assay [2], the AC50 amounted to 99.1 nM.

Consider `COCCN(CCOC)C(=O)[C@H]1/C(F)=C/C[C@H](C)[C@@H](C)S(=O)(=O)NC(=O)c2cc3c(cc2F)OC[C@]2(CCCc4cc(Cl)ccc42)CN3C[C@@H]2CCCN21` [Compound 18], for which the pKi in assay [1] was 10.30. Further, the AC50 in assay [2] amounted to 213 nM.

Regarding `C[C@@H]1[C@@H](C)C/C=C(\F)[C@H](C(=O)N(C)CCOc2cncc(F)c2)N2CCC[C@H]2CN2C[C@@]3(CCCc4cc(Cl)ccc43)COc3ccc(cc32)C(=O)NS1(=O)=O` [Compound 48], the pKi in assay [1] was 9.81. Moreover, the AC50 in assay [2] is 112 nM.

With `C[C@@H]1[C@@H](C)C/C=C(\F)[C@H](C(=O)N2CC(C)(N3CCOCC3)C2)N2CCC[C@H]2CN2C[C@@]3(CCCc4cc(Cl)ccc43)COc3ccc(cc32)C(=O)NS1(=O)=O` [Compound 84], the pKi in assay [1] was 10.40. For the same compound, in assay [2], the AC50 amounted to 317 nM.

As for `C[C@@H]1[C@@H](C)C/C=C(\F)[C@H](C(=O)N(C)CC2CCCOC2)N2CCC[C@H]2CN2C[C@@]3(CCCc4cc(Cl)ccc43)COc3ccc(cc32)C(=O)NS1(=O)=O` (single isomer, unassigned) [Compound 64], in assay [1], the pKi was 10.08. Moreover, in assay [2], the AC50 turned out to be 74.7 nM.

As to `C[C@@H]1[C@@H](C)C/C=C(\F)[C@H](C(=O)N(C)CC2CCOC2)N2CCC[C@H]2CN2C[C@@]3(CCCc4cc(Cl)ccc43)COc3ccc(cc32)C(=O)NS1(=O)=O` (single isomer, unassigned) [Compound 56], the pKi in assay [1] was 10.42. Also, the AC50 in assay [2] is 89.4 nM.

As to `C[C@@H]1[C@@H](C)C/C=C(\F)[C@H](C(=O)N2CCOC3(CCC3)C2)N2CCC[C@H]2CN2C[C@@]3(CCCc4cc(Cl)ccc43)COc3ccc(cc32)C(=O)NS1(=O)=O` [Compound 26], the pKi in assay [1] was 9.94. For the same compound, the AC50 in assay [2] turned out to be 153 nM.

Turning to `COCCN(CCOC)C(=O)[C@H]1/C(F)=C/C[C@H](C)CS(=O)(=O)NC(=O)c2ccc3c(c2)N(C[C@@H]2CCCN21)C[C@@]1(CCCc2cc(Cl)ccc21)CO3` [Compound 88], the pKi in assay [1] is 10.54. Moreover, the AC50 in assay [2] amounted to 116 nM.

As for `C[C@@H]1[C@@H](C)C/C=C(\F)[C@H](C(=O)N(C)C2CCCOC2)N2CCC[C@H]2CN2C[C@@]3(CCCc4cc(Cl)ccc43)COc3ccc(cc32)C(=O)NS1(=O)=O` (stereo partly shown) [Compound 58], in assay [1], the pKi is 10.39. Besides, in assay [2], the AC50 came out at 55.7 nM.

For the compound `C[C@@H]1[C@@H](C)C/C=C(\F)[C@H](C(=O)N(C)CCN2CCOC(C(F)(F)F)C2)N2CCC[C@H]2CN2C[C@@]3(CCCc4cc(Cl)ccc43)COc3ccc(cc32)C(=O)NS1(=O)=O` (single isomer, unassigned) [Compound 49], the pKi in assay [1] is 9.54. In addition, the AC50 in assay [2] came to 366 nM.

`C[C@@H]1[C@@H](C)C/C=C(\F)[C@H](C(=O)N(C)CCO)N2CCC[C@H]2CN2C[C@@]3(CCCc4cc(Cl)ccc43)COc3ccc(cc32)C(=O)NS1(=O)=O` [Compound 27]: in assay [1], the pKi was 10.27. Further, the AC50 in assay [2] turned out to be 396 nM.

As for `C[C@@H]1[C@@H](C)C/C=C(\F)[C@H](C(=O)N(C)Cc2ncnn2C)N2CCC[C@H]2CN2C[C@@]3(CCCc4cc(Cl)ccc43)COc3ccc(cc32)C(=O)NS1(=O)=O` [Compound 81], in assay [1], the pKi was 10.17. For the same compound, the AC50 in assay [2] was found to be 537 nM.

For the compound `COCCOCCN(C)C(=O)[C@H]1/C(F)=C/C[C@H](C)[C@@H](C)S(=O)(=O)NC(=O)c2ccc3c(c2)N(C[C@@H]2CCCN21)C[C@@]1(CCCc2cc(Cl)ccc21)CO3` [Compound 19], the pKi in assay [1] was 10.35. In addition, the AC50 in assay [2] is 79.3 nM.

On to `COCCN(C)C(=O)[C@H]1/C(F)=C/C[C@H](C)[C@@H](C)S(=O)(=O)NC(=O)c2ccc3c(c2)N(C[C@@H]2CCCN21)C[C@@]1(CCCc2cc(Cl)ccc21)CO3` [Compound 21], for which, in assay [1], the pKi is 10.12. The AC50 in assay [2] turned out to be 78 nM.

For the compound `C[C@@H]1[C@@H](C)C/C=C(\F)C(CO)(C(=O)N(C)CCN2CCOCC2)N2CCC[C@H]2CN2C[C@@]3(CCCc4cc(Cl)ccc43)COc3ccc(cc32)C(=O)NS1(=O)=O` (stereo partly shown) [Compound 86], in assay [1], the pKi was 10.49. Further, the AC50 in assay [2] turned out to be 1600 nM.

For `C[C@@H]1[C@@H](C)C/C=C(\F)[C@H](C(=O)N2CCN(C)C3(CC3)C2)N2CCC[C@H]2CN2C[C@@]3(CCCc4cc(Cl)ccc43)COc3ccc(cc32)C(=O)NS1(=O)=O` [Compound 83], the pKi in assay [1] was 10.21. Further, the AC50 in assay [2] was determined as 252 nM.

For `C[C@@H]1[C@@H](C)C/C=C(\F)[C@H](C(=O)N(C)CC2OCCO2)N2CCC[C@H]2CN2C[C@@]3(CCCc4cc(Cl)ccc43)COc3ccc(cc32)C(=O)NS1(=O)=O` [Compound 79], the pKi in assay [1] is 10.42. Also, in assay [2], the concentration at half-maximal activity (AC50) came out at 106 nM.

Take `C[C@@H]1[C@@H](C)C/C=C(\F)[C@H](C(=O)N(C)CC2COCCO2)N2CCC[C@H]2CN2C[C@@]3(CCCc4cc(Cl)ccc43)COc3ccc(cc32)C(=O)NS1(=O)=O` (single isomer, unassigned) [Compound 54]: the pKi in assay [1] was 10.38. Moreover, in assay [2], the AC50 is 76.4 nM.

On to `C[C@@H]1[C@@H](C)C/C=C(\F)[C@H](C(=O)N(C)CC(F)(F)F)N2CCC[C@H]2CN2C[C@@]3(CCCc4cc(Cl)ccc43)COc3ccc(cc32)C(=O)NS1(=O)=O` [Compound 30], for which the pKi in assay [1] is 9.42. In assay [2], the AC50 worked out at 351 nM.

Regarding `C[C@@H]1[C@@H](C)C/C=C(\F)[C@H](C(=O)N(C)CCC2CCOCC2)N2CCC[C@H]2CN2C[C@@]3(CCCc4cc(Cl)ccc43)COc3ccc(cc32)C(=O)NS1(=O)=O` (single isomer, unassigned) [Compound 2], in assay [1], the pKi was 10.05. Moreover, the AC50 in assay [2] was 89.2 nM.

For `COCCCN(CCOC)C(=O)[C@H]1/C(F)=C/C[C@H](C)[C@@H](C)S(=O)(=O)NC(=O)c2ccc3c(c2)N(C[C@@H]2CCCN21)C[C@@]1(CCCc2cc(Cl)ccc21)CO3` [Compound 70], the pKi in assay [1] is 10.55. In addition, the AC50 in assay [2] was 41.9 nM.

As to `C[C@@H]1[C@@H](C)C/C=C(\F)[C@H](C(=O)N2CCCC3(C2)CC3(F)F)N2CCC[C@H]2CN2C[C@@]3(CCCc4cc(Cl)ccc43)COc3ccc(cc32)C(=O)NS1(=O)=O` (stereo partly shown) [Compound 29], the pKi in assay [1] is 9.31. Moreover, the AC50 in assay [2] is 408 nM.

`C[C@@H]1[C@@H](C)C/C=C(\F)[C@H](C(=O)N(C)C2CCOC2)N2CCC[C@H]2CN2C[C@@]3(CCCc4cc(Cl)ccc43)COc3ccc(cc32)C(=O)NS1(=O)=O` (single isomer, unassigned) [Compound 68]: the pKi in assay [1] is 10.39. Besides, the AC50 in assay [2] is 103 nM.

Turning to `COCCCN(C)C(=O)[C@H]1/C(F)=C/C[C@H](C)[C@@H](C)S(=O)(=O)NC(=O)c2ccc3c(c2)N(C[C@@H]2CCCN21)C[C@@]1(CCCc2cc(Cl)ccc21)CO3` (single isomer, unassigned) [Compound 51], in assay [1], the pKi is 10.40. Further, the AC50 in assay [2] is 78.3 nM.

As for `C[C@@H]1[C@@H](C)C/C=C(\F)[C@H](C(=O)N2CCC(CC#N)CC2)N2CCC[C@H]2CN2C[C@@]3(CCCc4cc(Cl)ccc43)COc3ccc(cc32)C(=O)NS1(=O)=O` [Compound 46], the pKi in assay [1] was 10.04. For the same compound, the half-maximal activity concentration (AC50) in assay [2] was found to be 329 nM.

`C[C@@H]1[C@@H](C)C/C=C(\F)[C@H](C(=O)N2CCN(C)[C@@H](C)C2)N2CCC[C@H]2CN2C[C@@]3(CCCc4cc(Cl)ccc43)COc3ccc(cc32)C(=O)NS1(=O)=O` [Compound 24]: the pKi in assay [1] was 10.17. Moreover, in assay [2], the AC50 turned out to be 151 nM.

On to `COCCN(CC1CCOCC1)C(=O)[C@H]1/C(F)=C/C[C@H](C)[C@@H](C)S(=O)(=O)NC(=O)c2ccc3c(c2)N(C[C@@H]2CCCN21)C[C@@]1(CCCc2cc(Cl)ccc21)CO3` [Compound 59], for which the pKi in assay [1] is 10.22. Also, in assay [2], the AC50 stood at 33.4 nM.

On to `C[C@@H]1[C@@H](C)C/C=C(\F)[C@H](C(=O)N(C)c2ccccc2)N2CCC[C@H]2CN2C[C@@]3(CCCc4cc(Cl)ccc43)COc3ccc(cc32)C(=O)NS1(=O)=O` [Compound 28], for which the pKi in assay [1] is 9.33. Besides, in assay [2], the AC50 worked out at 302 nM.
